A short description of this data set: photoluminescence quantum yield (fraction); solvent given as SMILES.
Setting [1] is: in O=P(c1ccccc1)(c1ccccc1)c1ccccc1Oc1ccccc1P(=O)(c1ccccc1)c1ccccc1.

The structures appear in SMILES notation. “And” between values parts separate entries of the source, which are not always exact repeats. Equal entries are not always repeated.

In turn, `CC(=O)c1ccc(-c2cc3c(ccc4sccc43)s2)cc1` showed a photoluminescence quantum yield (in ClCCl) of 0.12.
Under “in Cc1ccccc1”, `CCCCOC(=O)c1cc(Cl)c2c3c(Cl)cc4c5c(cc(Cl)c(c6c(Cl)cc(C(=O)OCCCC)c1c26)c53)C(=O)N(c1c(C(C)C)cccc1C(C)C)C4=O` showed a photoluminescence quantum yield of 0.89.
Consider `CCOC(=O)c1cc(C(=O)OCC)c2ccc(N(C)C)cc2n1`, for which, under “in CCO”, the photoluminescence quantum yield was determined as 0.41.
On to `CCC1=C(CC)C(C)=[N+]2C1=Cc1c(C)c3cc4c(cc3n1[B-]2(F)F)=[N+]1C(=Cc2c(CC)c(CC)c(C)n2[B-]1(F)F)C=4C`, for which the photoluminescence quantum yield (in ClC(Cl)Cl) turned out to be 0.72.
In turn, `COc1ccc(-c2nc3c([nH]2)=C2C=C(Cl)S[C@@]2(C)[C@]2(C)SC(Cl)=CC=32)cc1` returned a photoluminescence quantum yield (in CC#N) of 0.002.
For `c1ccc(N(c2ccccc2)c2ccc(N(c3ccccc3)c3ccc4ccc5c(N(c6ccccc6)c6ccc(N(c7ccccc7)c7ccccc7)cc6)ccc6ccc3c4c65)cc2)cc1`, the photoluminescence quantum yield (in ClCCl) was 0.13.
For the setting “in C1CCOC1”, `Clc1cnc2nn3ccccc3c2n1` displayed a photoluminescence quantum yield of 0.38.
The compound `CCn1c2cc(C(C)(C)C)ccc2c2c3nsnc3c3c4ccc(C(C)(C)C)cc4n(CC)c3c21` showed a photoluminescence quantum yield (in CN(C)C=O) of 0.07, a photoluminescence quantum yield (in Cc1ccccc1) of 0.08 and a photoluminescence quantum yield (in ClCCl) of 0.07.
For `C[Si](C)(C)c1ccc(-c2ccc(-c3ccc(-c4ccc(-c5ccc([Si](C)(C)C)s5)cc4)c4nsnc34)cc2)s1`, the photoluminescence quantum yield (in C1CCOC1) came to 0.73.
Regarding `CC1(C)c2ccccc2-n2c(-c3ccc(N4c5ccccc5Oc5ccccc54)cc3)nc3cccc1c32`, the photoluminescence quantum yield by setting is: (in Cc1ccccc1) 0.31; under setting [1], 0.71.
For `NCCCCCCCCCCCCN1C(=O)c2ccc3c4ccc5c6c(ccc(c7ccc(c2c37)C1=O)c64)C(=O)N(c1ccc(O)cc1)C5=O`, the photoluminescence quantum yield (in CN(C)C=O) amounted to 0.91.
As for `CN1C(C(=O)Nc2ccccn2)=C([O-])c2sccc2S1(=O)=O`, the photoluminescence quantum yield reads like this: (in CCCCO) 0.0112; (in CCCO) 0.0085; (in CCO) 0.00451; (in CO) 0.00214.
On to `C(#Cc1nc(C#Cc2ccccc2)c(C#Cc2ccccc2)c(C#Cc2ccccc2)c1C#Cc1ccccc1)c1ccccc1`, for which, under “in ClCCl”, the photoluminescence quantum yield turned out to be 0.55.
Regarding `O=C(O)c1ccc2ccc3cccc4ccc1c2c34`, the photoluminescence quantum yield was 0.57 (in C1CCOC1); 0.11 (in CC#N); 0.56 (in CCCCCC); 0.038 (in CCO); 0.003 (in CN(C)C=O); 0.097 (in CO). Moreover, the photoluminescence quantum yield was found to be 0.73 (in Cc1ccccc1) and 0.63 (in ClCCl).
Take `CC1=C2C3=C(CCc4ccccc43)C(C)=[N+]2[B-](F)(F)n2c(C)c3c(c21)-c1ccccc1CC3`: for the setting “in CC#N”, the photoluminescence quantum yield was 0.38.
Turning to `c1ccc2c(-c3cc(-c4nccs4)nc(-c4nccs4)c3)c3ccccc3cc2c1`, the photoluminescence quantum yield is, setting by setting: (in CC#N) 0.134; (in CCCCCC) 0.418; (in CO) 0.0206; (in ClC(Cl)Cl) 0.214.
On to `CCc1c(C)[nH]c(C2=[N+]3C(=C(C)c4c(C)c(CC)c(C)n4[B-]3(F)F)c3ccccc32)c1C`, for which the photoluminescence quantum yield runs as follows: (in C1CCOC1) 0.27; (in CC#N) 0.21; (in CCCCCC) 0.93; (in CO) 0.21; (in Cc1ccccc1) 0.71; (in ClCCl) 0.72.
For `C(#Cc1ccccc1)C(C#Cc1ccccc1)=Cc1ccc(C=C(C#Cc2ccccc2)C#Cc2ccccc2)s1`, where the note is “in ClC(Cl)Cl”, the photoluminescence quantum yield is 0.09 and 0.08.
Consider `CSc1sc(C(N)=O)c2nnn(C)c(=O)c12`, for which the photoluminescence quantum yield was found to be 0.5 (in C1CCOC1); 0.38 (in CC#N); 0.22 (in CCO); 0.27 (in CN(C)C=O); 0.16 (in CO); 0.1 (in CS(C)=O).
For `CCCCCCCCOc1ccc(C#Cc2c3cc4ccccc4cc3c(C#Cc3ccc(F)cc3)c3cc4ccccc4cc23)cc1`, the photoluminescence quantum yield (in ClCCl) turned out to be 0.03.
Compound `COC(=O)c1ccc(/C=C2\N=C(c3ccc([N+](=O)[O-])cc3)NC2=O)cc1` displayed a photoluminescence quantum yield (in C1COCCO1) of 0.258.
`CC(C)(C)c1ccc(C#Cc2cc3ccc4cc(C#Cc5ccc(C(C)(C)C)cc5)cc5ccc(c2)c3c45)cc1`: the photoluminescence quantum yield (in ClCCl) came out at 0.14.
The compound `CC1(C)c2ccccc2N(c2ccc(-c3nnc(-c4ccc(-n5c6ccccc6c6ccccc65)cc4)o3)cc2)c2ccccc21` gave a photoluminescence quantum yield under setting [1] of 0.67.
Take `Cc1cc(C)c(N(c2ccccc2)c2ccc(S(=O)(=O)c3ccc(S(=O)(=O)c4ccc(N(c5ccccc5)c5c(C)cc(C)cc5C)cc4)cc3)cc2)c(C)c1`: for the setting “in Cc1ccccc1”, the photoluminescence quantum yield was 0.79.
`Cc1cc(C)c(B(c2cc(-c3ccccc3)sc2-c2sc(-c3ccccc3)cc2P(=O)(c2ccccc2)c2ccccc2)c2c(C)cc(C)cc2C)c(C)c1` displayed a photoluminescence quantum yield (in CO) of 0.75.
`COc1ccc(-c2cc3c(ccc4sc5ccc6sccc6c5c43)s2)cc1` yielded a photoluminescence quantum yield (in ClCCl) of 0.12.
Consider `CC1=CC(C)=[N+]2C1=Cc1cccn1[B-]2(F)F`, for which the photoluminescence quantum yield is, setting by setting: (in CCCCCC) 0.93; (in CO) 0.99; (in ClCCl) 0.87.
Consider `C[Si]1(C)c2ccc(-c3ccc(N(c4ccccc4)c4ccccc4)cc3)cc2C=Cc2cc(-c3ccc(N(c4ccccc4)c4ccccc4)cc3)ccc21`, for which the photoluminescence quantum yield (in ClCCl) turned out to be 0.43.
With `COc1ccc2c(c1)N(c1ccc(C)cc1)c1cc3c(cc1=N2)Oc1c(cc(C(C)(C)C)cc1C(C)(C)C)N=3`, the photoluminescence quantum yield (in CCCCCC) was found to be 0.35.
For the setting “in ClCCl”, `FC(F)(F)c1ccc(B2c3ccccc3Nc3ccccc32)c(C(F)(F)F)c1` yielded a photoluminescence quantum yield of 0.9.
For `CN(C)c1ccc(/C=C/c2nc3ccc(Br)cc3nc2-c2ccccc2)cc1`, the photoluminescence quantum yield (in C1COCCO1) came out at 0.19, the photoluminescence quantum yield (in CC#N) was found to be 0.01 and the photoluminescence quantum yield (in ClCCl) came to 0.17.
Compound `[BH3-][P+]1(c2ccccc2)c2ccccc2-c2sc3ccccc3c21` (stereo not drawn) yielded a photoluminescence quantum yield (in ClCCl) of 0.38.
For the compound `[NH3+]c1cc([NH3+])cc(-c2nc3ccccc3s2)c1`, the photoluminescence quantum yield (in O) came to 0.011.
As to `Nc1cc2ccc3cccc4ccc(c1)c2c34`, the photoluminescence quantum yield by setting is: (in CC#N) 0.14; (in CCCCOCCCC) 0.19; (in CO) 0.17.
For the setting “in CO”, `c1ccc(N(c2ccccc2)c2ccc(-c3ncc(-c4ccncc4)s3)cc2)cc1` returned a photoluminescence quantum yield of 0.07.
On to `CCCCCCN(CCCCCC)c1ccc(C#Cc2ccc(/C=C/c3ccc(-c4ccc(/C=C/c5ccc(C#Cc6ccc(N(CCCCCC)CCCCCC)cc6)cc5)cc4)cc3)cc2)cc1`, for which the photoluminescence quantum yield (in Cc1ccccc1) stood at 0.8.
On to `CCn1c2ccccc2c2cc(C#Cc3cc(C#Cc4ccc5c(c4)c4ccccc4n5CC)nc(N4CCCCC4)n3)ccc21`, for which the photoluminescence quantum yield runs as follows: (in C1CCOC1) 0.21; (in CCOC(C)=O) 0.17; (in CN(C)C=O) 0.15; (in Cc1ccccc1) 0.21; (in ClCCl) 0.2.
For `COc1cc2c(cc1OC)C1=C[C@H](c3ccccc3)C3(C(C#N)=C(C#N)N1CC2)c1ccccc1-c1ccccc13`, the photoluminescence quantum yield (in ClCCl) came out at 0.00173.
In the case of `CCN(CC)c1ccc2c(-c3ccc(S(=O)(=O)[O-])cc3S(=O)(=O)[O-])c3ccc(=[N+](CC)CC)cc-3oc2c1`, the photoluminescence quantum yield is, setting by setting: (in CC#N) 0.52; (in CCO) 0.68; (in CN(C)C=O) 0.51; (in O) 0.3.
With `N#Cc1c(C#N)c(-n2c3ccccc3c3ccccc32)c(-n2c3ccccc3c3ccccc32)c(-n2c3ccccc3c3ccccc32)c1-n1c2ccccc2c2ccccc21`, the photoluminescence quantum yield (in Cc1ccccc1) turned out to be 0.744.
For `CC1(C)C(/C=C/c2cc3ccc(O)cc3oc2=O)=[N+](CCCS(=O)(=O)[O-])c2ccccc21`, the photoluminescence quantum yield reads like this: (in CCO) 0.049; (in CS(C)=O) 0.023; (in O) 0.007.
As to `CN(C)c1nc(N(C)C)c2nc(C#N)n(Cc3ccccc3)c2n1`, the photoluminescence quantum yield is 0.95 (in C1COCCO1), 0.26 (in CC#N), 0.03 (in CO) and 0.2 (in ClCCl).
In the case of `Cc1cc(C)n2c1C=C1c3ccccc3C(c3c[nH]c4ccccc34)=[N+]1[B-]2(F)F`, the photoluminescence quantum yield amounted to 0.97 (in C1CCOC1); 0.96 (in CC#N); 0.99 (in CCCCCC); 0.96 (in CO); 0.96 (in Cc1ccccc1); 0.98 (in ClCCl).
In the case of `Cc1oc2c(Cl)cc3c(C)cc(=O)oc3c2c1C`, the photoluminescence quantum yield runs as follows: (in C1CCCCC1) 0.0005; (in C1COCCO1) 0.003; (in CC#N) 0.007; (in CCO) 0.02; (in OCC(F)(F)F) 0.04.
`COc1cc(-c2cnc(-c3cnc4ccccc4c3)o2)cc(OC)c1OC` registered a photoluminescence quantum yield (in ClCCl) of 0.76.
`COc1ccc(N(c2ccc(C=C(c3ccccc3)c3ccccc3)cc2)c2ccc(C=C(c3ccccc3)c3ccccc3)cc2)cc1`: where the note is “in Cc1ccccc1”, the photoluminescence quantum yield is 0.06.
With `N#C/C(=C\c1ccc(C#N)cc1)c1nc(-c2ccccc2)cs1`, the photoluminescence quantum yield by setting is: (in CC#N) 0.18; (in CCO) 0.18; (in CN(C)C=O) 0.272; (in Cc1ccccc1) 0.098; (in ClCCl) 0.131.
In turn, `CCCCn1c2ccc(C#N)cc2c2cc(C#N)ccc21` had a photoluminescence quantum yield (in ClCCl) of 0.1.
Under “in CC#N”, `CCOC(=O)c1c2c3c(ccc(Cl)c3c3cc4ccccc4cc13)N(C)C2=O` gave a photoluminescence quantum yield of 0.41.
Take `O=C(c1ccc(-n2c3ccccc3c3ccccc32)cc1)c1ccc(-n2c3ccccc3c3ccccc32)cc1`: the photoluminescence quantum yield (in Cc1ccccc1) is 0.21 and the photoluminescence quantum yield under setting [1] worked out at 0.55.

The values above are taken from the Deep4Chem optical property database.
